Legend:
Assay type in all cases: cell-based, human
[1] = test system: p21 protein (CIP1/CDKN1A) expression in HUVEC; experiment: Total p21 protein ELISA in cell lysates, normal cells; conditions: 24 h; for n-fold p21 Protein Expression HUVEC: vs control
Description: After incubation, cells were washed twice with ice-cold PBS, scraped, pelleted and lysed in RIPA buffer (Pierce) supplemented with protease inhibitor cocktail (Roche) and phosphatase inhibitor (Roche) for 30 min on ice. The lysates were transfered into microcentrifuge tubes and centrifuged at 14,000× g for 5 min at 4 °C followed by sonication (10–15 s × 3). The supernatants were collected into clean microcentrifuge tubes and stored at −80 °C. Lysates protein concentration were quantified by BCA protein assay kit (Thermo Scientific) and aliquots of 50 μg of total cell lysate were used for ELISA assay.
DuoSetR IC ELISA-Human Total p21/CIP1/CDKN1A(: DYC1047-2) was purchased from R&D Systems Inc. and contains the basic components required for the development of sandwich ELISAs to measure human p21 protein also known as CIP1 and CDKN1A in cell lysates. An immobilized capture antibody specifically binds human p21. After washing away unbound material, a biotinylated detection antibody specific for human p21 is used to detect the captured protein, utilizing a standard Streptavidin-HRP format. All experiments were performed in triplicates and absorbance was measured at λ = 450 nm using a Dynex plate reader.
In cancer development and evolution p21 protein might acts as an oncogene or tumor suppressor and for this reason it could be an important player in processes such as the cancer aggressiveness or the response to chemotherapy. In this study, using ELISA assay we analyzed the expression level of p21 in the tumor cells (PE-CA/PJ49) compared to a normal cells (HUVEC).

[2] = test system: P21 (CDKN1A) gene expression in HUVEC; experiment: Real-time PCR of CDKN1A (P21) gene, normal cells; conditions: 24 h, reference gene HPRT, 2^-ΔΔCt vs control
Description: (§1) In order to isolate of total RNA from treated or untreated cells was used TRIzol reagent (Invitrogen)-a monophasic solution of phenol and guanidine isothiocyanate. During the isolation phases, the TRIzol reagent maintains RNA integrity, while disrupting cells and dissolving cell components. The addition of chloroform followed by centrifugation ensures the separation phase of the solution into an aqueous phase and an organic phase. RNA remains in the aqueous phase and is recovered by isopropanol precipitation. The RNA pellet washed once with 75% ice-cold ethanol and entrifuged at 10,000× g for 5 min at 4 °C. The […] is redissolved in nuclease-free water and incubating in a 60 °C water bath for 10 min. The concentration of isolated RNA was assessed using a NanoDrop spectrophotometer ([…], Montchanin, DE, USA). RNA purity was determined by A260/A280 ratios (an […] ratio as close as possible to 2 indicates the presence of highly purified RNA). Reverse transcription of messenger RNA molecules was performed using the High-capacity cDNA Reverse Transcription Kit from Applied Biosystems, using non-specific, randomic primers, following the manufacturer's instructions (Table 1). […] The obtained cDNA was stored at 4 °C and further used in the amplification reaction Real-Time PCR (RT-PCR). […] The samples were analyzed using the formula 2^-ΔΔCt.

[3] = test system: P21 (CDKN1A) gene expression in PE/CA-PJ49; experiment: Real-time PCR of CDKN1A (P21) gene, tumor cells; conditions: 24 h, reference gene HPRT, 2^-ΔΔCt vs control
Description: as §1

[4] = Annexin V-FITC/PI apoptosis flow cytometry, normal cells; conditions: human, HUVEC normal cells, read-out: Q3 (viable cells, FITC−PI−)
Description: (§2) The apoptosis assay was carried out with the Annexin V-FITC kit using the manufacturer’s (BD Pharmingen) protocol. Treated and untreated 1 × 10^6 cells/mL were resuspended in cold binding buffer and staining simultaneously with 5 μL FITC-Annexin V (green fluorescence) and 5 μL propidium iodide (PI) in the dark, at room temperature for 15 min. Then, 400μL of Annexin V binding buffer was added and 10,000 cells/sample were acquired using a BD Canto II flow cytometer. The analysis was performed using DIVA 6.2 software in order to discriminate viable cells (FITC^−PI^−) from necrotic cells […] and early apoptosis (FITC^+PI^−) from late apoptosis.
(§3) Apoptosis can be seen as an efficient method of preventing malignant transformation, as it ensures the removal of cells which present with genetic alterations. Deficient apoptosis can promote the development of cancer, both through the accumulation of cells found during division and the blocking of the removal of cells with high malignant potential genetic variations. The factors which determine the cells to follow one of three possible pathways are not yet known – the start of apoptosis after cellular injury, the repair of the lesion or the continuation of the cellular cycle. Many therapeutical agents have anti-tumoral effects generated by their capacity to activate the apoptotic process. […] The flow cytometric analysis was performed using DIVA 6.2 software and allowed to discriminate viable cells (FITC^−PI^− = Q3) from necrotic cells (FITC^−PI^+ = Q1) and early apoptosis (FITC^+PI^− = Q4) from late apoptosis (FITC^+PI^+ = Q2).

HUVEC normal cells = experiment: as above; conditions: 24 h; for Apoptoza Tarzie = Q2 (%): late apoptosis; for Apoptoza Totală = Q2+Q4 (%): total apoptosis
Description: as §2, §3

PE/CA-PJ49 tumor cells = experiment: MTS cell proliferation assay (CellTiter 96), tumor cells; conditions: 24 h, PE/CA-PJ49 vs HUVEC
Description: In order to determine the effect of CRM or RSV on proliferative activity of cisplatin treated cells was used the Promega CellTiter 96® AQueous One Solution Cell Proliferation Assay, a test that is based on the reduction of yellow MTS tetrazolium salt by the viable cells and generation of colored formazan soluble in the culture medium. The product was spectrophotometrically quantified by measuring the absorbance at λ = 490 nm using a Dynex plate reader (DYNEX Technologies-MRS, Chantilly, VA, USA). Results were expressed as mean values of three determinations ± standard deviation (SD). Untreated cells served as control and considered to have a proliferation index (PI = absorbance of treated cells/absorbance of untreated cells) equal to 1.

| Structure (SMILES) | p21 pg/mL HUVEC ([1]; 15 μM CRM) [pg/mL] | n-fold p21 Protein Expression HUVEC ([1]; 15 μM CRM) | n-fold P21 gene expression HUVEC ([2]; 15 μM CRM) | n-fold P21 gene expression PE/CA-PJ49 ([3]; 15 μM CRM) | viability at 24 h, 15 μM ([4]; 15 μM CRM) [%] | Early Apoptosis = Q4 (%) (HUVEC normal cells; 15 μM CRM) | Necrosis = Q1 (%) (HUVEC normal cells; 15 μM CRM) | Apoptoza Tarzie = Q2 (%) (HUVEC normal cells; 15 μM CRM) | Apoptoza Totală = Q2+Q4 (%) (HUVEC normal cells; 15 μM CRM) | proliferative process (IP) (PE/CA-PJ49 tumor cells; 15 μM CRM) | p21 pg/mL HUVEC ([1]; 40 μM RSV) [pg/mL] | n-fold p21 Protein Expression HUVEC ([1]; 40 μM RSV) | n-fold P21 gene expression HUVEC ([2]; 40 μM RSV) | n-fold P21 gene expression PE/CA-PJ49 ([3]; 40 μM RSV) | viability at 24 h, 40 μM ([4]; 40 μM RSV) [%] | Early Apoptosis = Q4 (%) (HUVEC normal cells; 40 μM RSV) | Necrosis = Q1 (%) (HUVEC normal cells; 40 μM RSV) | Apoptoza Tarzie = Q2 (%) (HUVEC normal cells; 40 μM RSV) | Apoptoza Totală = Q2+Q4 (%) (HUVEC normal cells; 40 μM RSV) | proliferation (index proliferation, IP) (PE/CA-PJ49 tumor cells; 40 μM RSV) |
| --- | --- | --- | --- | --- | --- | --- | --- | --- | --- | --- | --- | --- | --- | --- | --- | --- | --- | --- | --- | --- |
| COc1cc(/C=C/C(=O)CC(=O)/C=C/c2ccc(O)c(OC)c2)ccc1O [CRM, Curcumin] | 221 | 1.21 | 1.39 | 1.2 | 90.2 | 6.7 | 2.6 | 0.5 | 7.2 | much more intense decrease of the proliferative process |  |  |  |  |  |  |  |  |  |  |
| Oc1ccc(C=Cc2cc(O)cc(O)c2)cc1 [RSV, 3,5,4′-trihydroxystilbene] |  |  |  |  |  |  |  |  |  |  | 148 | 0.81 | 0.36 | 3.1 | 93.7 | 4.8 | 1.2 | 0.3 | 5.1 | affected the proliferation of tumor cells PE/CA-PJ49 much more than the one of normal cells HUVEC |

Source: publication PMC7551591, “The Effect of Resveratrol or Curcumin on Head and Neck Cancer Cells Sensitivity to the Cytotoxic Effects of Cisplatin” (Nutrients, 2020)
